Patent US20240174638A1, “HETEROARYL DERIVATIVES AS APELIN RECEPTOR AGONISTS” (RESEARCH TRIANGLE INSTITUTE, priority 2021, published 2024)
Like-named read-outs stand apart in the source and are kept apart here.

How the values were obtained:
[1] = test system: BLEO-induced lung fibrosis in male C57BL/6 mice; experiment: Chronic (21-day) bleomycin-induced lung fibrosis model, prophylactic (Px) and therapeutic (Tx) arms; type: in vivo, mouse; details: for 21-day survival rate: BLEO-instilled mice
[2] = test system: Salmonella typhimurium (TA98, TA100, TA1535 and TA1537)
[3] = Plasma and tissue pharmacokinetics following a single oral administration in male SD rat; type: in vivo
Protocol: Assay: Plasma and Tissue Pharmacokinetics of Example 22 Following a Single Oral Administration in Male SD Rat
Preparation of PO (10 mg/kg, 10 mL/kg) Dosing
1 mg/mL solution of 0.5% (w/v) CMC-Na, 0.1% (v/v) Tween 80 in Milli-Q Water.
Dissolved 29.68 mg of EXAMPLE 22 in 29.637 mL of 0.5% (w/v) CMC-Na, 0.1% (v/v). Tween 80 in Milli-Q Water with vortexing and sonicate to obtain a solution.
(§1) The desired serial concentrations of working solutions were achieved by diluting stock solution of analyte with 50% acetonitrile in water solution. 5 μL of working solutions (10, 20, 50, 100, 500, 1000, 5000, 10000 ng/mL) were added to 50 μL of the blank SD Rat plasma to achieve calibration standards of 1˜1000 ng/mL (1, 2, 5, 10, 50, 100, 500, 1000 ng/mL) in a total volume of 55 μL. Four quality control samples at 2 ng/mL, 5 ng/mL, 50 ng/mL and 800 ng/mL for plasma were prepared independently of those used for the calibration curves. These QC samples were prepared on the day of analysis in the same way as calibration standards.
55 μL standards, 55 μL QC samples and 55 μL unknown samples (50 μL plasma with 5 μL blank solution) were added to 200 μL of acetonitrile containing IS mixture for precipitating protein respectively. Then the samples were vortexed for 30 s. After centrifugation at 4 degree Celsius, 3900 rpm for 15 min, the supernatant was diluted 3 times with water. 20 μL of diluted supernatant was injected into the LC/MS/MS system for quantitative analysis.
as §1, with “Rat tissue (lung, brain, kidney, muscle/skeletal, spleen, heart and skin) homogenous” for “Rat plasma”, “for tissue” for “for plasma”
50 μL standards, 50 μL QC samples and 50 μL unknown samples (50 μL Tissue with 5 μL blank solution) were added to 200 μL of acetonitrile containing IS mixture for precipitating protein respectively. Then the samples were vortexed for 30 s. After centrifugation at 4 degree Celsius, 3900 rpm for 15 min, the supernatant was diluted 3 times with water. 50 μL of heart diluted supernatant and 20 μL of other tissue diluted supernatant was injected into the LC/MS/MS system for quantitative analysis.

[4] = relative to Vehicle-treated BLEO-instilled controls

**Q.** With `O=C(O)C[C@H](CCN1CCCC(F)(F)C1)NC(=O)c1cc(-c2ccccc2C(F)(F)F)n(-c2nccs2)n1` [Example 22, (3S)-5-(3,3-difluoropiperidin-1-yl)-3-{[1-(1,3-thiazol-2-yl)-5-[2-(trifluoromethyl)phenyl]-1H-pyrazol-3-yl]formamido}pentanoic acid] as the compound, how does the “composite Tissue Collagen Fraction (TCF)” value ([1]; 15 mpk/day Px EXAMPLE 22, Vehicle 5.58±0.34%) read?
**A.** The value was 4.51±0.31%.

**Q.** What about the 21-day survival rate ([1]; 15 mpk Px EXAMPLE 22 (p.o. BID)) of the same compound?
**A.** The 21-day survival rate was 91%.

**Q.** What about the 21-day survival rate ([1]; 30 mpk Px EXAMPLE 22 (p.o. BID)) of the same compound?
**A.** Its 21-day survival rate is 91%.

**Q.** What about the 21-day survival rate ([1]; 60 mpk Px EXAMPLE 22 (p.o. BID)) of the same compound?
**A.** Its 21-day survival rate is 92%.

**Q.** And the 21-day survival rate ([1]; Tx EXAMPLE 22 60 mpk (p.o. BID, from 5 days post-BLEO))?
**A.** The 21-day survival rate was 100%.

**Q.** What about the ΔBW ([1]; D0-D21, relative to Vehicle-treated BLEO-instilled controls) of the same compound?
**A.** The ΔBW was “Neither EXAMPLE 22 nor PIRF affected”.

**Q.** And the “end-point readouts for fibrosis, overall” value ([1]; overall conclusion of the study)?
**A.** The value was “positive impact on one or more end-point readouts”.

**Q.** What about the “LW indexed to tibia length (LW:TL)” value [1, 4] of the same compound?
**A.** Its value is “Neither EXAMPLE 22 nor PIRF affected”.

**Q.** And the “endpoint lung OH-P content” value [1, 4]?
**A.** The value was “Neither EXAMPLE 22 nor PIRF affected”.

**Q.** And the “endpoint lung weight (LW)” value [1, 4]?
**A.** Its value is “Neither EXAMPLE 22 nor PIRF affected”.

**Q.** What about the “final BW” value [1, 4] of the same compound?
**A.** The value was “Neither EXAMPLE 22 nor PIRF affected”.

**Q.** What about the “serial BW” value [1, 4] of the same compound?
**A.** The value was “Neither EXAMPLE 22 nor PIRF affected”.

**Q.** And the “Cytotoxicity Code” value [2]?
**A.** Its value is “N”.

**Q.** And the “cytotoxicity to tester strains” value [2]?
**A.** The value was “No cytotoxicity was observed”.

**Q.** And the “dose related increase of revertant colonies” value [2]?
**A.** Its value is “No dose related increase”.

**Q.** And the “precipitate in Mini-Ames assay” value [2]?
**A.** The value was “No precipitate was observed”.

**Q.** What about the “4 h Conc., Brain (mean)” value ([3]; 4 h post dose) of the same compound?
**A.** The value was “BLQ”.

**Q.** What about the “24 h Conc., Brain (mean)” value ([3]; 24 h post dose) of the same compound?
**A.** The value was “BLQ”.

**Q.** What about the “24 h Conc., Heart (mean)” value ([3]; 24 h post dose) of the same compound?
**A.** Its value is “BLQ”.

**Q.** And the “24 h Conc., Muscle (mean)” value ([3]; 24 h post dose)?
**A.** The value was “BLQ”.

**Q.** And the “24 h Conc., Skin (mean)” value ([3]; 24 h post dose)?
**A.** Its value is “BLQ”.

**Q.** And the “24 h Conc., Spleen (mean)” value ([3]; 24 h post dose)?
**A.** Its value is “BLQ”.

**Q.** And the concentration at 4 h ([3]; heart, 10 mg/kg, 4 h post dose, read-out: 4 h Conc., Heart (mean))?
**A.** Its concentration at 4 h is 28.8 ng/g.

**Q.** What about the Kp at 4 h ([3]; heart, 10 mg/kg, 4 h post dose, read-out: 4 h Tissue:Plasma Ratio, Heart) of the same compound?
**A.** The Kp at 4 h was 0.28.

**Q.** And the Kp at 24 h ([3]; kidney (to plasma), 10 mg/kg, 24 h post dose, read-out: 24 h Tissue:Plasma Ratio, Kidney)?
**A.** The Kp at 24 h was 3.47.

**Q.** What about the concentration at 4 h ([3]; kidney, 10 mg/kg, 4 h post dose, read-out: 4 h Conc., Kidney (mean)) of the same compound?
**A.** Its concentration at 4 h is 305 ng/g.

**Q.** What about the Kp at 4 h ([3]; kidney, 10 mg/kg, 4 h post dose, read-out: 4 h Tissue:Plasma Ratio, Kidney) of the same compound?
**A.** Its Kp at 4 h is 3.11.

**Q.** And the concentration at 24 h ([3]; kidney, 10 mg/kg, 24 h post dose, read-out: 24 h Conc., Kidney (mean))?
**A.** The concentration at 24 h was 22.9 ng/g.

**Q.** What about the concentration at 4 h ([3]; lung, 10 mg/kg, 4 h post dose, read-out: 4 h Conc., Lung (mean)) of the same compound?
**A.** The concentration at 4 h was 40 ng/g.

**Q.** What about the Kp at 4 h ([3]; lung, 10 mg/kg, 4 h post dose, read-out: 4 h Tissue:Plasma Ratio, Lung) of the same compound?
**A.** The Kp at 4 h was 0.39.

**Q.** What about the concentration at 4 h ([3]; muscle (skeletal), 10 mg/kg, 4 h post dose, read-out: 4 h Conc., Muscle (mean)) of the same compound?
**A.** Its concentration at 4 h is 7.3 ng/g.

**Q.** And the Kp at 4 h ([3]; muscle (skeletal), 10 mg/kg, 4 h post dose, read-out: 4 h Tissue:Plasma Ratio, Muscle)?
**A.** The Kp at 4 h was 0.07.

**Q.** What about the concentration at 4 h ([3]; plasma, 10 mg/kg, 4 h post dose, read-out: 4 h Conc., Plasma (mean)) of the same compound?
**A.** The concentration at 4 h was 102 ng/mL.

**Q.** And the concentration at 24 h ([3]; plasma, 10 mg/kg, 24 h post dose, read-out: 24 h Conc., Plasma (mean))?
**A.** Its concentration at 24 h is 6.6 ng/mL.

**Q.** What about the concentration at 4 h ([3]; skin, 10 mg/kg, 4 h post dose, read-out: 4 h Conc., Skin (mean)) of the same compound?
**A.** Its concentration at 4 h is 19.3 ng/g.

**Q.** And the Kp at 4 h ([3]; skin, 10 mg/kg, 4 h post dose, read-out: 4 h Tissue:Plasma Ratio, Skin)?
**A.** Its Kp at 4 h is 0.19.

**Q.** And the concentration at 4 h ([3]; spleen, 10 mg/kg, 4 h post dose, read-out: 4 h Conc., Spleen (mean))?
**A.** Its concentration at 4 h is 14 ng/g.

**Q.** And the Kp at 4 h ([3]; spleen, 10 mg/kg, 4 h post dose, read-out: 4 h Tissue:Plasma Ratio, Spleen)?
**A.** Its Kp at 4 h is 0.14.
